Results reported in PMC5218480 (PLoS ONE, 2017).

Test system: MV-4-11 cells
Assay: Gene expression microarray analysis (Affymetrix PrimeView) and GSEA
Assay type: cell-based, human
Design: RFU PODN (11730768_x_at) / Fold change /veh PODN (11730768_x_at) / RFU LINC00158 (11744669_a_at) / Fold change /veh LINC00158 (11744669_a_at) / RFU DUSP10 (11751237_a_at) / Fold change /veh DUSP10 (11751237_a_at) / RFU ID3 (11757404_x_at) / Fold change /veh ID3 (11757404_x_at) / RFU PLEKHG5 (11737974_s_at) / Fold change /veh PLEKHG5 (11737974_s_at) / RFU LRRC4B (11730491_at) / Fold change /veh LRRC4B (11730491_at) / RFU GIMAP4 (11747438_a_at) / Fold change /veh GIMAP4 (11747438_a_at) / RFU KRT8 (11758183_x_at) / Fold change /veh KRT8 (11758183_x_at) / RFU CNN1 (11734310_a_at) / Fold change /veh CNN1 (11734310_a_at) / RFU VPS37D (11726825_at) / Fold change /veh VPS37D (11726825_at) / RFU C10orf10 (11716522_x_at) / Fold change /veh C10orf10 (11716522_x_at) / RFU KIR2DL2 /// KIR2DL4 /// KIR2DL5A /// KIR2DL5B /// KIR2DS1 /// KIR2DS2 /// KIR2DS3 /// KIR2DS4 /// KIR3DL3 /// KIR3DL3 /// KIR3DS1 (11738374_at) / Fold change /veh KIR2DL2 /// KIR2DL4 /// KIR2DL5A /// KIR2DL5B /// KIR2DS1 /// KIR2DS2 /// KIR2DS3 /// KIR2DS4 /// KIR3DL3 /// KIR3DL3 /// KIR3DS1 (11738374_at) / RFU C1QL1 (11718748_at) / Fold change /veh C1QL1 (11718748_at) / RFU TMPRSS4 (11747572_a_at) / Fold change /veh TMPRSS4 (11747572_a_at) / RFU HAMP (11756126_x_at) / Fold change /veh HAMP (11756126_x_at) / RFU RNFT2 (11725882_a_at) / Fold change /veh RNFT2 (11725882_a_at) / RFU NR4A2 (11747474_a_at) / Fold change /veh NR4A2 (11747474_a_at) / RFU ABCC12 (11746883_a_at) / Fold change /veh ABCC12 (11746883_a_at) / RFU TMEM136 (11760407_x_at) / Fold change /veh TMEM136 (11760407_x_at) / RFU CLDN22 /// WWC2 (11732394_at) / Fold change /veh CLDN22 /// WWC2 (11732394_at) / RFU HLA-DPB1 (11760878_x_at) / Fold change /veh HLA-DPB1 (11760878_x_at) / RFU SPINT1 (11716480_a_at) / Fold change /veh SPINT1 (11716480_a_at) / RFU GAP43 (11754022_s_at) / Fold change /veh GAP43 (11754022_s_at) / RFU A4GNT (11735810_at) / Fold change /veh A4GNT (11735810_at) / RFU PRB3 (11715151_x_at) / Fold change /veh PRB3 (11715151_x_at) / RFU TUBB4B (11761932_at) / Fold change /veh TUBB4B (11761932_at) / RFU CAPN14 (11732068_a_at) / Fold change /veh CAPN14 (11732068_a_at) / RFU TMCC2 (11721928_a_at) / Fold change /veh TMCC2 (11721928_a_at) / RFU IRGQ (11745062_a_at) / Fold change /veh IRGQ (11745062_a_at) / RFU FAM174B (11720279_a_at) / Fold change /veh FAM174B (11720279_a_at) / RFU TMPRSS4 (11748680_a_at) / Fold change /veh TMPRSS4 (11748680_a_at) / RFU FAM212B (11763350_a_at) / Fold change /veh FAM212B (11763350_a_at) / RFU PLEKHG5 (11743358_a_at) / Fold change /veh PLEKHG5 (11743358_a_at) / RFU ZSCAN30 (11745921_a_at) / Fold change /veh ZSCAN30 (11745921_a_at) / RFU CMKLR1 (11741424_a_at) / Fold change /veh CMKLR1 (11741424_a_at) / RFU LOC101060620 /// MAPK8IP1 (11723275_at) / Fold change /veh LOC101060620 /// MAPK8IP1 (11723275_at) / RFU SPTSSB (11747773_x_at) / Fold change /veh SPTSSB (11747773_x_at) / RFU PRSS12 (11739890_at) / Fold change /veh PRSS12 (11739890_at) / RFU BIN1 (11741810_x_at) / Fold change /veh BIN1 (11741810_x_at) / RFU WNT11 (11732464_a_at) / Fold change /veh WNT11 (11732464_a_at) / RFU C10orf10 (11716521_a_at) / Fold change /veh C10orf10 (11716521_a_at) / RFU C5orf56 (11738089_at) / Fold change /veh C5orf56 (11738089_at) / RFU CYB561 (11721691_x_at) / Fold change /veh CYB561 (11721691_x_at) / RFU ANKRD19P (11752326_a_at) / Fold change /veh ANKRD19P (11752326_a_at) / RFU OR2T12 /// OR2T33 /// OR2T8 (11738714_s_at) / Fold change /veh OR2T12 /// OR2T33 /// OR2T8 (11738714_s_at) / RFU VCAN (11748164_a_at) / Fold change /veh VCAN (11748164_a_at) / RFU JSRP1 (11732532_at) / Fold change /veh JSRP1 (11732532_at) / RFU KRTAP10-11 (11738290_x_at) / Fold change /veh KRTAP10-11 (11738290_x_at) / RFU MYO3A (11730013_a_at) / Fold change /veh MYO3A (11730013_a_at) / RFU EBF3 (11725865_a_at) / Fold change /veh EBF3 (11725865_a_at) / RFU CAMK2N1 (11719241_x_at) / Fold change /veh CAMK2N1 (11719241_x_at) / RFU C5orf56 (11738088_a_at) / Fold change /veh C5orf56 (11738088_a_at) / RFU OLFML3 (11715873_a_at) / Fold change /veh OLFML3 (11715873_a_at) / RFU LOC100653217 /// NTM (11731650_a_at) / Fold change /veh LOC100653217 /// NTM (11731650_a_at) / RFU MAPK11 (11762145_a_at) / Fold change /veh MAPK11 (11762145_a_at) / RFU FIZ1 (11724087_x_at) / Fold change /veh FIZ1 (11724087_x_at) / RFU OASL (11726364_x_at) / Fold change /veh OASL (11726364_x_at) / RFU SOX15 (11748057_x_at) / Fold change /veh SOX15 (11748057_x_at) / RFU CD79A (11719716_a_at) / Fold change /veh CD79A (11719716_a_at) / RFU HIST1H1D (11736915_at) / Fold change /veh HIST1H1D (11736915_at) / RFU CASKIN2 (11723855_a_at) / Fold change /veh CASKIN2 (11723855_a_at) / RFU LOC730098 (11760151_x_at) / Fold change /veh LOC730098 (11760151_x_at) / RFU OR4N2 (11742367_at) / Fold change /veh OR4N2 (11742367_at) / RFU PRRT2 (11749266_a_at) / Fold change /veh PRRT2 (11749266_a_at) / RFU SNX32 (11753110_a_at) / Fold change /veh SNX32 (11753110_a_at) / RFU CDHR5 (11726645_a_at) / Fold change /veh CDHR5 (11726645_a_at) / RFU RCAN1 (11760418_a_at) / Fold change /veh RCAN1 (11760418_a_at) / RFU FAM167A (11723789_a_at) / Fold change /veh FAM167A (11723789_a_at) / RFU FAM26E (11764081_at) / Fold change /veh FAM26E (11764081_at) / RFU ISYNA1 (11749810_s_at) / Fold change /veh ISYNA1 (11749810_s_at) / RFU ACY1 (11761880_at) / Fold change /veh ACY1 (11761880_at) / RFU 11764098_at / Fold change /veh 11764098_at / RFU SAMD14 (11745864_x_at) / Fold change /veh SAMD14 (11745864_x_at) / RFU NPB (11741838_a_at) / Fold change /veh NPB (11741838_a_at) / RFU TMPRSS6 (11731388_a_at) / Fold change /veh TMPRSS6 (11731388_a_at) / RFU KRTAP10-2 (11738614_at) / Fold change /veh KRTAP10-2 (11738614_at) / RFU ARHGAP8 /// PRR5-ARHGAP8 (11727945_x_at) / Fold change /veh ARHGAP8 /// PRR5-ARHGAP8 (11727945_x_at) / RFU KRTAP5-7 /// NADSYN1 (11734609_at) / Fold change /veh KRTAP5-7 /// NADSYN1 (11734609_at) / RFU RASL12 (11751679_a_at) / Fold change /veh RASL12 (11751679_a_at) / RFU CDKN2B (11736163_a_at) / Fold change /veh CDKN2B (11736163_a_at) / RFU PRF1 (11729649_at) / Fold change /veh PRF1 (11729649_at) / RFU, ZNF638 /// ZNF638-IT1 / Fold change vs veh, ZNF638 /// ZNF638-IT1 / RFU, PANK3 / Fold change vs veh, PANK3 / RFU, SH3YL1 / Fold change vs veh, SH3YL1 / RFU, ZEB2 / Fold change vs veh, ZEB2 / RFU, NRIP1 / Fold change vs veh, NRIP1 / RFU, PTTG1IP / Fold change vs veh, PTTG1IP / RFU, CAPN2 / Fold change vs veh, CAPN2 / RFU, MED14 / Fold change vs veh, MED14 / RFU, SNORA58 / Fold change vs veh, SNORA58 / RFU, C1orf63 / Fold change vs veh, C1orf63 / RFU, LRRFIP1 / Fold change vs veh, LRRFIP1 / RFU, NDUFAF7 / Fold change vs veh, NDUFAF7 / RFU, SLC12A2 / Fold change vs veh, SLC12A2 / RFU, IBTK / Fold change vs veh, IBTK / RFU, ESF1 / Fold change vs veh, ESF1 / Fold change vs veh, TMEM50B / RFU, TAOK1 / Fold change vs veh, TAOK1 / RFU, ACBD3 / Fold change vs veh, ACBD3 / RFU, TMA16 / Fold change vs veh, TMA16 / RFU, RWDD3 / Fold change vs veh, RWDD3 / RFU, BCAT1 / Fold change vs veh, BCAT1 / RFU, EDEM3 / Fold change vs veh, EDEM3 / RFU, TMEM33 / Fold change vs veh, TMEM33 / RFU, WDR75 / Fold change vs veh, WDR75 / RFU, AHCTF1 / Fold change vs veh, AHCTF1 / RFU, TFRC / Fold change vs veh, TFRC / RFU, ZDHHC17 / Fold change vs veh, ZDHHC17 / RFU, NOM1 / Fold change vs veh, NOM1 / RFU, ARL8B / Fold change vs veh, ARL8B / RFU, ZBTB11 / Fold change vs veh, ZBTB11 / RFU, TAMM41 / Fold change vs veh, TAMM41 / RFU, KIAA1704 /// LOC100996395 / Fold change vs veh, KIAA1704 /// LOC100996395 / RFU, ING1 / Fold change vs veh, ING1 / RFU, TRMT61B / Fold change vs veh, TRMT61B / RFU, FUBP3 / Fold change vs veh, FUBP3 / RFU, TP53 / Fold change vs veh, TP53 / RFU, TNKS2 / Fold change vs veh, TNKS2 / RFU, ZFP14 / Fold change vs veh, ZFP14 / RFU, ACTR2 / Fold change vs veh, ACTR2 / RFU, PPP3R1 / Fold change vs veh, PPP3R1 / RFU, PIK3R1 / Fold change vs veh, PIK3R1 / RFU, HNRNPA1 / Fold change vs veh, HNRNPA1 / RFU, RNF170 / Fold change vs veh, RNF170 / RFU, ZNF28 / Fold change vs veh, ZNF28 / RFU, RNGTT / Fold change vs veh, RNGTT / RFU, OGT / Fold change vs veh, OGT / RFU, BRD1 / Fold change vs veh, BRD1 / RFU, MARS / Fold change vs veh, MARS / RFU, ZNF655 / Fold change vs veh, ZNF655 / RFU, FAHD1 / Fold change vs veh, FAHD1 / RFU, BDP1 / Fold change vs veh, BDP1 / RFU, LRRCC1 / Fold change vs veh, LRRCC1 / RFU, ARID1A / Fold change vs veh, ARID1A / RFU, ZNF146 / Fold change vs veh, ZNF146 / RFU, ZNF330 / Fold change vs veh, ZNF330 / RFU, GPN3 / Fold change vs veh, GPN3 / RFU, C9orf123 / Fold change vs veh, C9orf123 / RFU, N4BP2L2 / Fold change vs veh, N4BP2L2 / RFU, ARFIP1 / Fold change vs veh, ARFIP1 / RFU, FAM179B / Fold change vs veh, FAM179B / RFU, BCL10 / Fold change vs veh, BCL10 / RFU, UHRF1BP1L / Fold change vs veh, UHRF1BP1L / RFU, BET1 / Fold change vs veh, BET1 / RFU, CNOT2 / Fold change vs veh, CNOT2 / RFU, ZNF268 / Fold change vs veh, ZNF268 / Fold change vs veh, ZNF507 / RFU, DGCR2 / Fold change vs veh, DGCR2 / RFU, WDSUB1 / Fold change vs veh, WDSUB1 / Fold change vs veh, HSP90B1 /// MIR3652 / RFU, ADSS / Fold change vs veh, ADSS / RFU, GK / Fold change vs veh, GK / RFU, ZNF148 / Fold change vs veh, ZNF148 / RFU, TAF9 / Fold change vs veh, TAF9 / RFU, SLC1A5 / Fold change vs veh, SLC1A5 / RFU, SLMO2 / Fold change vs veh, SLMO2 / RFU, ABCC4 / Fold change vs veh, ABCC4 / RFU, LOC101060439 /// RAP1B / Fold change vs veh, LOC101060439 /// RAP1B / RFU, RFX7 / Fold change vs veh, RFX7 / RFU, GTPBP10 / Fold change vs veh, GTPBP10 / RFU, CNEP1R1 / Fold change vs veh, CNEP1R1 / RFU, BIVM-ERCC5 /// ERCC5 / Fold change vs veh, BIVM-ERCC5 /// ERCC5 / RFU, ILF3 / Fold change vs veh, ILF3 / RFU 11762660_at / Fold change /veh 11762660_at / RFU VCAN (11757783_s_at) / Fold change /veh VCAN (11757783_s_at) / RFU DDX43 (11728927_at) / Fold change /veh DDX43 (11728927_at) / RFU KRT8 (11758188_x_at) / Fold change /veh KRT8 (11758188_x_at) / RFU NKD1 (11759106_at) / Fold change /veh NKD1 (11759106_at) / RFU SRD5A1 (11742802_a_at) / Fold change /veh SRD5A1 (11742802_a_at) / RFU TPSAB1 /// TPSB2 (11721975_s_at) / Fold change /veh TPSAB1 /// TPSB2 (11721975_s_at) / RFU GSTM3 (11746129_a_at) / Fold change /veh GSTM3 (11746129_a_at) / RFU IL23R (11737362_x_at) / Fold change /veh IL23R (11737362_x_at) / RFU TMEM51 (11727254_a_at) / Fold change /veh TMEM51 (11727254_a_at) / RFU PIWIL2 (11732686_x_at) / Fold change /veh PIWIL2 (11732686_x_at) / RFU ORM1 (11744905_x_at) / Fold change /veh ORM1 (11744905_x_at) / RFU CCDC152 (11743942_at) / Fold change /veh CCDC152 (11743942_at) / RFU ECM1 (11717891_a_at) / Fold change /veh ECM1 (11717891_a_at) / RFU IL23R (11748794_a_at) / Fold change /veh IL23R (11748794_a_at) / RFU TNFAIP8L3 (11732012_x_at) / Fold change /veh TNFAIP8L3 (11732012_x_at) / RFU MBOAT4 (11741988_at) / Fold change /veh MBOAT4 (11741988_at) / RFU 11764193_at / Fold change /veh 11764193_at / RFU TMEM53 (11763286_at) / Fold change /veh TMEM53 (11763286_at) / RFU MAGEB2 (11727129_at) / Fold change /veh MAGEB2 (11727129_at) / RFU TMEM200A (11744735_a_at) / Fold change /veh TMEM200A (11744735_a_at) / RFU CCDC152 (11751479_a_at) / Fold change /veh CCDC152 (11751479_a_at) / RFU FAM211A (11726209_a_at) / Fold change /veh FAM211A (11726209_a_at) / RFU RGS16 (11746705_a_at) / Fold change /veh RGS16 (11746705_a_at) / RFU VCAN (11755009_s_at) / Fold change /veh VCAN (11755009_s_at) / RFU RHOB (11743442_s_at) / Fold change /veh RHOB (11743442_s_at) / RFU RGS16 (11720943_a_at) / Fold change /veh RGS16 (11720943_a_at) / RFU RGS16 (11720944_at) / Fold change /veh RGS16 (11720944_at) / RFU, VPS4B / Fold change vs veh, VPS4B / RFU, CREB1 / Fold change vs veh, CREB1 / RFU, DNAJC13 / Fold change vs veh, DNAJC13 / RFU, GNAQ / Fold change vs veh, GNAQ / RFU, CDK5R1 / Fold change vs veh, CDK5R1 / RFU, ZRANB3 / Fold change vs veh, ZRANB3 / RFU, CUL4A / Fold change vs veh, CUL4A / RFU, CCNY / Fold change vs veh, CCNY / RFU, UFL1 / Fold change vs veh, UFL1 / RFU, COG3 / Fold change vs veh, COG3 / RFU, DIAPH2 / Fold change vs veh, DIAPH2 / RFU, SKA2 / Fold change vs veh, SKA2 / RFU, AFF3 / Fold change vs veh, AFF3 / RFU, LMF1 / Fold change vs veh, LMF1 / RFU, IPO11 / Fold change vs veh, IPO11 / RFU, DFFB / Fold change vs veh, DFFB / RFU, FOXP1 / Fold change vs veh, FOXP1 / RFU, CARD8 / Fold change vs veh, CARD8 / RFU, STRN3 / Fold change vs veh, STRN3 / RFU, ADK / Fold change vs veh, ADK / RFU, RASSF2 / Fold change vs veh, RASSF2 / RFU, WIPF1 / Fold change vs veh, WIPF1 / RFU, LARP1B / Fold change vs veh, LARP1B / RFU, RASA1 / Fold change vs veh, RASA1 / RFU, RB1 / Fold change vs veh, RB1 / RFU, PPFIA1 / Fold change vs veh, PPFIA1 / RFU, MAT2A / Fold change vs veh, MAT2A / RFU, CCT5 / Fold change vs veh, CCT5 / RFU, WDR92 / Fold change vs veh, WDR92 / RFU, CUX1 / Fold change vs veh, CUX1 / RFU, TTC7A / Fold change vs veh, TTC7A / RFU, TMEM135 / Fold change vs veh, TMEM135 / RFU, DEPTOR / Fold change vs veh, DEPTOR / RFU, CPM / Fold change vs veh, CPM / RFU, DNAJB6 / Fold change vs veh, DNAJB6 / RFU, CACNA2D3 / Fold change vs veh, CACNA2D3 / RFU, DTX4 / Fold change vs veh, DTX4 / RFU, TFCP2 / Fold change vs veh, TFCP2 / RFU, GMCL1 /// GMCL1P1 / Fold change vs veh, GMCL1 /// GMCL1P1 / RFU, AEBP2 / Fold change vs veh, AEBP2 / RFU, SNHG1 /// SNORD22 /// SNORD25 /// SNORD26 /// SNORD27 /// SNORD28 /// SNORD29 /// SNORD31 / Fold change vs veh, SNHG1 /// SNORD22 /// SNORD25 /// SNORD26 /// SNORD27 /// SNORD28 /// SNORD29 /// SNORD31 / Fold change (Aza/veh), C12orf56 (ProbeSet 11735607_a_at) / Fold change (ACY-1035/veh), C12orf56 (ProbeSet 11735607_a_at) / Fold change (Aza/veh), FGFR1OP (ProbeSet 11751329_s_at) / Fold change (ACY-1035/veh), FGFR1OP (ProbeSet 11751329_s_at) / Fold change (Aza/veh), VPS36 (ProbeSet 11739960_a_at) / Fold change (ACY-1035/veh), VPS36 (ProbeSet 11739960_a_at) / RFU SYPL1 (11715823_x_at) / Fold change /veh SYPL1 (11715823_x_at) / RFU IGFBP7 (11715501_s_at) / Fold change /veh IGFBP7 (11715501_s_at) / RFU REEP3 (11722064_at) / Fold change /veh REEP3 (11722064_at) / RFU IGLL1 (11728026_x_at) / Fold change /veh IGLL1 (11728026_x_at): dose or concentration left out as unconfirmed
Details: MV-4-11 cells, 48 hours

## Nc1ncn([C@@H]2O[C@H](CO)[C@@H](O)[C@H]2O)c(=O)n1 [azacitidine]
  Fold change /veh FAM211A (11726209_a_at): 1.26
